According to patent US10201536B2, “Methods and pharmaceutical compositions for the treatment of bacterial infections in patients suffering from cirrhosis” (INSERM (INSTITUT NATIONAL DE LA SANTE ET DE LA RECHERCHE …, priority 2015, dated 2019):
Residues, ends and D or L forms follow the SMILES beside them. *: point of attachment. MeOSuc = COC(=O)CCC(=O)*; CH2Cl = ClC*

Assays:
Type in all cases: cell-based
[1] = target: T1, neutrophil elastase (Homo sapiens, UniProt P08246); assay: gp91phox degradation in healthy PMN by cell-free degranulation supernatant with elastase inhibitor; conditions: 100 μM 15 min pretreatment, 45 min supernatant
T1 construct: a cell-free degranulation supernatant obtained from fMLP (1 μM, 2 min) stimulated PMN; endogenous in cells; host or cells: healthy human PMN stimulated with fMLP, or their cell-free degranulation supernatant
T1 sequence (P08246 30-267): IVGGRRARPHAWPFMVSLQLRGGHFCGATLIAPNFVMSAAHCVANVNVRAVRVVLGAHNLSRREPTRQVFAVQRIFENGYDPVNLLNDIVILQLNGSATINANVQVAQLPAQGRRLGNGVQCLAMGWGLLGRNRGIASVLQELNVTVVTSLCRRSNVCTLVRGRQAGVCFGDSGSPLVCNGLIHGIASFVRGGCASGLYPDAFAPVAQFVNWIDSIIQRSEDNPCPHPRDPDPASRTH
Procedure: (§1) FIG. 8. Elastase induces the degradation of gp91phox and p22phox in healthy PMN. (A and B) Western-blot analysis and densitometric quantification of gp91phox and p22phox in healthy PMN treated in the absence or presence of elastase at 0.1 and 0.5 units for 1 hour. (C and D) Western-blot analysis densitometric quantification of gp91phox and […] in healthy PMN treated in the absence or presence of the elastase inhibitor (NEI) at 100 μM for 15 min before stimulation with fMLP (1 μM) for 45 min. (E) Western-blot analysis densitometric quantification of gp91phox in healthy PMN pretreated in the absence or presence of the elastase inhibitor (NEI) at 100 μM for 15 min before incubation for 45 min with a cell-free degranulation supernatant obtained from fMLP (1 μM, 2 min) stimulated PMN. Blots are representative of 4 experiments and densitometric analyses are cumulative and expressed as percentage of the actin level. […] (F) Sensorgrams of the PMN specific binding and dissociation to the anti-gp91phox antibody (7D5) coated to the CM3 sensorchip, analysed with the Biacore X100, as a function of time. […] Data are representative of 3 independent experiments are expressed as resonance unit (RU). (G) Flow cytometry quantification of the Gp91phox expression at the surface of PMN treated or not (Control) with 0.5 unit Elastase at 4° C. […]

[2] = target: T1, neutrophil elastase; assay: fMLP-induced depletion of gp91phox and p22phox in healthy PMN with elastase inhibitor; conditions: 100 μM 15 min before fMLP (1 μM) 45 min
Procedure: as §1

[3] = target: T2, elastase (Homo sapiens, UniProt P08246); assay: gp91phox surface expression of healthy PMN treated with plasma from cirrhotic patients, with NEI; conditions: 12 H, 25% plasma, 100 μM
T2 construct: with plasma of healthy volunteers or cirrhotic patients, (25% plasma in 1 ml RPMI containing 5×10^6 PMN); from tissue; host or cells: plasma of cirrhotic patients, incubated with healthy human PMN
T2 sequence (P08246 30-267): T1 sequence (P08246 30-267)
Procedure: (§2) FIG. 9. Plasma from cirrhotic patients reduces gp91phox expression at the surface of healthy PMN and ROS production in NEI-sensitive manner. PMN were pretreated for 12 H at 37° C. with RPMI (control) or with plasma of healthy volunteers or cirrhotic patients, (25% plasma in 1 ml RPMI containing 5×10^6 PMN) either in the absence or presence of the elastase inhibitor NEI (100 μM). PMN were labelled with the anti-gp91phox FITC-coupled antibody. (A) Quantification of the number of positive cells labeled with the anti-gp91phox FITC-coupled antibody (7D5) by Flow cytometry, expressed as percentage of control values. […] (C, D) Time course production of superoxide induced by PMA by healthy PMN which were pretreated for 12 H in the absence (Buffer/RPMI) or presence of plasma from healthy volunteers and cirrhotic patients, either with or without 100 μM NEI. (E) Production of superoxide expressed as percentage of control values (mean±SEM, n=5). […]
(§3) Granulocyte elastase is released during infectious processes and has been proposed to be helpful for the diagnosis of patients with spontaneous bacterial peritonitis (Casafon et al., 1999), a major complication of the alcoholic liver cirrhosis. […] Consistent with this observation, patients' plasmas inhibited NOX2 activity of PMN measured by the cytochrome C assay (FIGS. 9C-E) and chemiluminescence.

[4] = target: T2, elastase; assay: NOX2 activity (superoxide production) of healthy PMN treated with plasma from cirrhotic patients, with NEI; conditions: 12 H, 25% plasma, 100 μM, PMA-induced superoxide
Procedure: as §2, §3

SMILES: COC(=O)CCC(=O)N[C@@H](C)C(=O)N[C@@H](C)C(=O)N1CCC[C@H]1C(=O)N[C@H](C(=O)CCl)C(C)C [NEI, MeOSuc-AAPV-CMK] (MeOSuc-AAPV-CH2Cl)
- gp91phox degradation by cell-free degranulation supernatant [1]: blocked gp91phox degradation
- fMLP-induced depletion of gp91phox and p22phox [2]: prevented
- decrease of gp91phox positive cells and surface expression caused by patients' plasma [3]: prevented
- inhibition of NOX2 activity by patients' plasma [4]: prevented the inhibitory effects
